# Test results taken from paper PMC5218480 (PLoS ONE, 2017).
# Test system: MV-4-11 cells
# Experiment: Gene expression microarray analysis (Affymetrix PrimeView) and GSEA
# Format: cell-based, human
# Design: RFU PODN (11730768_x_at) / Fold change /veh PODN (11730768_x_at) / RFU LINC00158 (11744669_a_at) / Fold change /veh LINC00158 (11744669_a_at) / RFU DUSP10 (11751237_a_at) / Fold change /veh DUSP10 (11751237_a_at) / RFU ID3 (11757404_x_at) / Fold change /veh ID3 (11757404_x_at) / RFU PLEKHG5 (11737974_s_at) / Fold change /veh PLEKHG5 (11737974_s_at) / RFU LRRC4B (11730491_at) / Fold change /veh LRRC4B (11730491_at) / RFU GIMAP4 (11747438_a_at) / Fold change /veh GIMAP4 (11747438_a_at) / RFU KRT8 (11758183_x_at) / Fold change /veh KRT8 (11758183_x_at) / RFU CNN1 (11734310_a_at) / Fold change /veh CNN1 (11734310_a_at) / RFU VPS37D (11726825_at) / Fold change /veh VPS37D (11726825_at) / RFU C10orf10 (11716522_x_at) / Fold change /veh C10orf10 (11716522_x_at) / RFU KIR2DL2 /// KIR2DL4 /// KIR2DL5A /// KIR2DL5B /// KIR2DS1 /// KIR2DS2 /// KIR2DS3 /// KIR2DS4 /// KIR3DL3 /// KIR3DL3 /// KIR3DS1 (11738374_at) / Fold change /veh KIR2DL2 /// KIR2DL4 /// KIR2DL5A /// KIR2DL5B /// KIR2DS1 /// KIR2DS2 /// KIR2DS3 /// KIR2DS4 /// KIR3DL3 /// KIR3DL3 /// KIR3DS1 (11738374_at) / RFU C1QL1 (11718748_at) / Fold change /veh C1QL1 (11718748_at) / RFU TMPRSS4 (11747572_a_at) / Fold change /veh TMPRSS4 (11747572_a_at) / RFU HAMP (11756126_x_at) / Fold change /veh HAMP (11756126_x_at) / RFU RNFT2 (11725882_a_at) / Fold change /veh RNFT2 (11725882_a_at) / RFU NR4A2 (11747474_a_at) / Fold change /veh NR4A2 (11747474_a_at) / RFU ABCC12 (11746883_a_at) / Fold change /veh ABCC12 (11746883_a_at) / RFU TMEM136 (11760407_x_at) / Fold change /veh TMEM136 (11760407_x_at) / RFU CLDN22 /// WWC2 (11732394_at) / Fold change /veh CLDN22 /// WWC2 (11732394_at) / RFU HLA-DPB1 (11760878_x_at) / Fold change /veh HLA-DPB1 (11760878_x_at) / RFU SPINT1 (11716480_a_at) / Fold change /veh SPINT1 (11716480_a_at) / RFU GAP43 (11754022_s_at) / Fold change /veh GAP43 (11754022_s_at) / RFU A4GNT (11735810_at) / Fold change /veh A4GNT (11735810_at) / RFU PRB3 (11715151_x_at) / Fold change /veh PRB3 (11715151_x_at) / RFU TUBB4B (11761932_at) / Fold change /veh TUBB4B (11761932_at) / RFU CAPN14 (11732068_a_at) / Fold change /veh CAPN14 (11732068_a_at) / RFU TMCC2 (11721928_a_at) / Fold change /veh TMCC2 (11721928_a_at) / RFU IRGQ (11745062_a_at) / Fold change /veh IRGQ (11745062_a_at) / RFU FAM174B (11720279_a_at) / Fold change /veh FAM174B (11720279_a_at) / RFU TMPRSS4 (11748680_a_at) / Fold change /veh TMPRSS4 (11748680_a_at) / RFU FAM212B (11763350_a_at) / Fold change /veh FAM212B (11763350_a_at) / RFU PLEKHG5 (11743358_a_at) / Fold change /veh PLEKHG5 (11743358_a_at) / RFU ZSCAN30 (11745921_a_at) / Fold change /veh ZSCAN30 (11745921_a_at) / RFU CMKLR1 (11741424_a_at) / Fold change /veh CMKLR1 (11741424_a_at) / RFU LOC101060620 /// MAPK8IP1 (11723275_at) / Fold change /veh LOC101060620 /// MAPK8IP1 (11723275_at) / RFU SPTSSB (11747773_x_at) / Fold change /veh SPTSSB (11747773_x_at) / RFU PRSS12 (11739890_at) / Fold change /veh PRSS12 (11739890_at) / RFU BIN1 (11741810_x_at) / Fold change /veh BIN1 (11741810_x_at) / RFU WNT11 (11732464_a_at) / Fold change /veh WNT11 (11732464_a_at) / RFU C10orf10 (11716521_a_at) / Fold change /veh C10orf10 (11716521_a_at) / RFU C5orf56 (11738089_at) / Fold change /veh C5orf56 (11738089_at) / RFU CYB561 (11721691_x_at) / Fold change /veh CYB561 (11721691_x_at) / RFU ANKRD19P (11752326_a_at) / Fold change /veh ANKRD19P (11752326_a_at) / RFU OR2T12 /// OR2T33 /// OR2T8 (11738714_s_at) / Fold change /veh OR2T12 /// OR2T33 /// OR2T8 (11738714_s_at) / RFU VCAN (11748164_a_at) / Fold change /veh VCAN (11748164_a_at) / RFU JSRP1 (11732532_at) / Fold change /veh JSRP1 (11732532_at) / RFU KRTAP10-11 (11738290_x_at) / Fold change /veh KRTAP10-11 (11738290_x_at) / RFU MYO3A (11730013_a_at) / Fold change /veh MYO3A (11730013_a_at) / RFU EBF3 (11725865_a_at) / Fold change /veh EBF3 (11725865_a_at) / RFU CAMK2N1 (11719241_x_at) / Fold change /veh CAMK2N1 (11719241_x_at) / RFU C5orf56 (11738088_a_at) / Fold change /veh C5orf56 (11738088_a_at) / RFU OLFML3 (11715873_a_at) / Fold change /veh OLFML3 (11715873_a_at) / RFU LOC100653217 /// NTM (11731650_a_at) / Fold change /veh LOC100653217 /// NTM (11731650_a_at) / RFU MAPK11 (11762145_a_at) / Fold change /veh MAPK11 (11762145_a_at) / RFU FIZ1 (11724087_x_at) / Fold change /veh FIZ1 (11724087_x_at) / RFU OASL (11726364_x_at) / Fold change /veh OASL (11726364_x_at) / RFU SOX15 (11748057_x_at) / Fold change /veh SOX15 (11748057_x_at) / RFU CD79A (11719716_a_at) / Fold change /veh CD79A (11719716_a_at) / RFU HIST1H1D (11736915_at) / Fold change /veh HIST1H1D (11736915_at) / RFU CASKIN2 (11723855_a_at) / Fold change /veh CASKIN2 (11723855_a_at) / RFU LOC730098 (11760151_x_at) / Fold change /veh LOC730098 (11760151_x_at) / RFU OR4N2 (11742367_at) / Fold change /veh OR4N2 (11742367_at) / RFU PRRT2 (11749266_a_at) / Fold change /veh PRRT2 (11749266_a_at) / RFU SNX32 (11753110_a_at) / Fold change /veh SNX32 (11753110_a_at) / RFU CDHR5 (11726645_a_at) / Fold change /veh CDHR5 (11726645_a_at) / RFU RCAN1 (11760418_a_at) / Fold change /veh RCAN1 (11760418_a_at) / RFU FAM167A (11723789_a_at) / Fold change /veh FAM167A (11723789_a_at) / RFU FAM26E (11764081_at) / Fold change /veh FAM26E (11764081_at) / RFU ISYNA1 (11749810_s_at) / Fold change /veh ISYNA1 (11749810_s_at) / RFU ACY1 (11761880_at) / Fold change /veh ACY1 (11761880_at) / RFU 11764098_at / Fold change /veh 11764098_at / RFU SAMD14 (11745864_x_at) / Fold change /veh SAMD14 (11745864_x_at) / RFU NPB (11741838_a_at) / Fold change /veh NPB (11741838_a_at) / RFU TMPRSS6 (11731388_a_at) / Fold change /veh TMPRSS6 (11731388_a_at) / RFU KRTAP10-2 (11738614_at) / Fold change /veh KRTAP10-2 (11738614_at) / RFU ARHGAP8 /// PRR5-ARHGAP8 (11727945_x_at) / Fold change /veh ARHGAP8 /// PRR5-ARHGAP8 (11727945_x_at) / RFU KRTAP5-7 /// NADSYN1 (11734609_at) / Fold change /veh KRTAP5-7 /// NADSYN1 (11734609_at) / RFU RASL12 (11751679_a_at) / Fold change /veh RASL12 (11751679_a_at) / RFU CDKN2B (11736163_a_at) / Fold change /veh CDKN2B (11736163_a_at) / RFU PRF1 (11729649_at) / Fold change /veh PRF1 (11729649_at) / RFU, ZNF638 /// ZNF638-IT1 / Fold change vs veh, ZNF638 /// ZNF638-IT1 / RFU, PANK3 / Fold change vs veh, PANK3 / RFU, SH3YL1 / Fold change vs veh, SH3YL1 / RFU, ZEB2 / Fold change vs veh, ZEB2 / RFU, NRIP1 / Fold change vs veh, NRIP1 / RFU, PTTG1IP / Fold change vs veh, PTTG1IP / RFU, CAPN2 / Fold change vs veh, CAPN2 / RFU, MED14 / Fold change vs veh, MED14 / RFU, SNORA58 / Fold change vs veh, SNORA58 / RFU, C1orf63 / Fold change vs veh, C1orf63 / RFU, LRRFIP1 / Fold change vs veh, LRRFIP1 / RFU, NDUFAF7 / Fold change vs veh, NDUFAF7 / RFU, SLC12A2 / Fold change vs veh, SLC12A2 / RFU, IBTK / Fold change vs veh, IBTK / RFU, ESF1 / Fold change vs veh, ESF1 / Fold change vs veh, TMEM50B / RFU, TAOK1 / Fold change vs veh, TAOK1 / RFU, ACBD3 / Fold change vs veh, ACBD3 / RFU, TMA16 / Fold change vs veh, TMA16 / RFU, RWDD3 / Fold change vs veh, RWDD3 / RFU, BCAT1 / Fold change vs veh, BCAT1 / RFU, EDEM3 / Fold change vs veh, EDEM3 / RFU, TMEM33 / Fold change vs veh, TMEM33 / RFU, WDR75 / Fold change vs veh, WDR75 / RFU, AHCTF1 / Fold change vs veh, AHCTF1 / RFU, TFRC / Fold change vs veh, TFRC / RFU, ZDHHC17 / Fold change vs veh, ZDHHC17 / RFU, NOM1 / Fold change vs veh, NOM1 / RFU, ARL8B / Fold change vs veh, ARL8B / RFU, ZBTB11 / Fold change vs veh, ZBTB11 / RFU, TAMM41 / Fold change vs veh, TAMM41 / RFU, KIAA1704 /// LOC100996395 / Fold change vs veh, KIAA1704 /// LOC100996395 / RFU, ING1 / Fold change vs veh, ING1 / RFU, TRMT61B / Fold change vs veh, TRMT61B / RFU, FUBP3 / Fold change vs veh, FUBP3 / RFU, TP53 / Fold change vs veh, TP53 / RFU, TNKS2 / Fold change vs veh, TNKS2 / RFU, ZFP14 / Fold change vs veh, ZFP14 / RFU, ACTR2 / Fold change vs veh, ACTR2 / RFU, PPP3R1 / Fold change vs veh, PPP3R1 / RFU, PIK3R1 / Fold change vs veh, PIK3R1 / RFU, HNRNPA1 / Fold change vs veh, HNRNPA1 / RFU, RNF170 / Fold change vs veh, RNF170 / RFU, ZNF28 / Fold change vs veh, ZNF28 / RFU, RNGTT / Fold change vs veh, RNGTT / RFU, OGT / Fold change vs veh, OGT / RFU, BRD1 / Fold change vs veh, BRD1 / RFU, MARS / Fold change vs veh, MARS / RFU, ZNF655 / Fold change vs veh, ZNF655 / RFU, FAHD1 / Fold change vs veh, FAHD1 / RFU, BDP1 / Fold change vs veh, BDP1 / RFU, LRRCC1 / Fold change vs veh, LRRCC1 / RFU, ARID1A / Fold change vs veh, ARID1A / RFU, ZNF146 / Fold change vs veh, ZNF146 / RFU, ZNF330 / Fold change vs veh, ZNF330 / RFU, GPN3 / Fold change vs veh, GPN3 / RFU, C9orf123 / Fold change vs veh, C9orf123 / RFU, N4BP2L2 / Fold change vs veh, N4BP2L2 / RFU, ARFIP1 / Fold change vs veh, ARFIP1 / RFU, FAM179B / Fold change vs veh, FAM179B / RFU, BCL10 / Fold change vs veh, BCL10 / RFU, UHRF1BP1L / Fold change vs veh, UHRF1BP1L / RFU, BET1 / Fold change vs veh, BET1 / RFU, CNOT2 / Fold change vs veh, CNOT2 / RFU, ZNF268 / Fold change vs veh, ZNF268 / Fold change vs veh, ZNF507 / RFU, DGCR2 / Fold change vs veh, DGCR2 / RFU, WDSUB1 / Fold change vs veh, WDSUB1 / Fold change vs veh, HSP90B1 /// MIR3652 / RFU, ADSS / Fold change vs veh, ADSS / RFU, GK / Fold change vs veh, GK / RFU, ZNF148 / Fold change vs veh, ZNF148 / RFU, TAF9 / Fold change vs veh, TAF9 / RFU, SLC1A5 / Fold change vs veh, SLC1A5 / RFU, SLMO2 / Fold change vs veh, SLMO2 / RFU, ABCC4 / Fold change vs veh, ABCC4 / RFU, LOC101060439 /// RAP1B / Fold change vs veh, LOC101060439 /// RAP1B / RFU, RFX7 / Fold change vs veh, RFX7 / RFU, GTPBP10 / Fold change vs veh, GTPBP10 / RFU, CNEP1R1 / Fold change vs veh, CNEP1R1 / RFU, BIVM-ERCC5 /// ERCC5 / Fold change vs veh, BIVM-ERCC5 /// ERCC5 / RFU, ILF3 / Fold change vs veh, ILF3 / RFU 11762660_at / Fold change /veh 11762660_at / RFU VCAN (11757783_s_at) / Fold change /veh VCAN (11757783_s_at) / RFU DDX43 (11728927_at) / Fold change /veh DDX43 (11728927_at) / RFU KRT8 (11758188_x_at) / Fold change /veh KRT8 (11758188_x_at) / RFU NKD1 (11759106_at) / Fold change /veh NKD1 (11759106_at) / RFU SRD5A1 (11742802_a_at) / Fold change /veh SRD5A1 (11742802_a_at) / RFU TPSAB1 /// TPSB2 (11721975_s_at) / Fold change /veh TPSAB1 /// TPSB2 (11721975_s_at) / RFU GSTM3 (11746129_a_at) / Fold change /veh GSTM3 (11746129_a_at) / RFU IL23R (11737362_x_at) / Fold change /veh IL23R (11737362_x_at) / RFU TMEM51 (11727254_a_at) / Fold change /veh TMEM51 (11727254_a_at) / RFU PIWIL2 (11732686_x_at) / Fold change /veh PIWIL2 (11732686_x_at) / RFU ORM1 (11744905_x_at) / Fold change /veh ORM1 (11744905_x_at) / RFU CCDC152 (11743942_at) / Fold change /veh CCDC152 (11743942_at) / RFU ECM1 (11717891_a_at) / Fold change /veh ECM1 (11717891_a_at) / RFU IL23R (11748794_a_at) / Fold change /veh IL23R (11748794_a_at) / RFU TNFAIP8L3 (11732012_x_at) / Fold change /veh TNFAIP8L3 (11732012_x_at) / RFU MBOAT4 (11741988_at) / Fold change /veh MBOAT4 (11741988_at) / RFU 11764193_at / Fold change /veh 11764193_at / RFU TMEM53 (11763286_at) / Fold change /veh TMEM53 (11763286_at) / RFU MAGEB2 (11727129_at) / Fold change /veh MAGEB2 (11727129_at) / RFU TMEM200A (11744735_a_at) / Fold change /veh TMEM200A (11744735_a_at) / RFU CCDC152 (11751479_a_at) / Fold change /veh CCDC152 (11751479_a_at) / RFU FAM211A (11726209_a_at) / Fold change /veh FAM211A (11726209_a_at) / RFU RGS16 (11746705_a_at) / Fold change /veh RGS16 (11746705_a_at) / RFU VCAN (11755009_s_at) / Fold change /veh VCAN (11755009_s_at) / RFU RHOB (11743442_s_at) / Fold change /veh RHOB (11743442_s_at) / RFU RGS16 (11720943_a_at) / Fold change /veh RGS16 (11720943_a_at) / RFU RGS16 (11720944_at) / Fold change /veh RGS16 (11720944_at) / RFU, VPS4B / Fold change vs veh, VPS4B / RFU, CREB1 / Fold change vs veh, CREB1 / RFU, DNAJC13 / Fold change vs veh, DNAJC13 / RFU, GNAQ / Fold change vs veh, GNAQ / RFU, CDK5R1 / Fold change vs veh, CDK5R1 / RFU, ZRANB3 / Fold change vs veh, ZRANB3 / RFU, CUL4A / Fold change vs veh, CUL4A / RFU, CCNY / Fold change vs veh, CCNY / RFU, UFL1 / Fold change vs veh, UFL1 / RFU, COG3 / Fold change vs veh, COG3 / RFU, DIAPH2 / Fold change vs veh, DIAPH2 / RFU, SKA2 / Fold change vs veh, SKA2 / RFU, AFF3 / Fold change vs veh, AFF3 / RFU, LMF1 / Fold change vs veh, LMF1 / RFU, IPO11 / Fold change vs veh, IPO11 / RFU, DFFB / Fold change vs veh, DFFB / RFU, FOXP1 / Fold change vs veh, FOXP1 / RFU, CARD8 / Fold change vs veh, CARD8 / RFU, STRN3 / Fold change vs veh, STRN3 / RFU, ADK / Fold change vs veh, ADK / RFU, RASSF2 / Fold change vs veh, RASSF2 / RFU, WIPF1 / Fold change vs veh, WIPF1 / RFU, LARP1B / Fold change vs veh, LARP1B / RFU, RASA1 / Fold change vs veh, RASA1 / RFU, RB1 / Fold change vs veh, RB1 / RFU, PPFIA1 / Fold change vs veh, PPFIA1 / RFU, MAT2A / Fold change vs veh, MAT2A / RFU, CCT5 / Fold change vs veh, CCT5 / RFU, WDR92 / Fold change vs veh, WDR92 / RFU, CUX1 / Fold change vs veh, CUX1 / RFU, TTC7A / Fold change vs veh, TTC7A / RFU, TMEM135 / Fold change vs veh, TMEM135 / RFU, DEPTOR / Fold change vs veh, DEPTOR / RFU, CPM / Fold change vs veh, CPM / RFU, DNAJB6 / Fold change vs veh, DNAJB6 / RFU, CACNA2D3 / Fold change vs veh, CACNA2D3 / RFU, DTX4 / Fold change vs veh, DTX4 / RFU, TFCP2 / Fold change vs veh, TFCP2 / RFU, GMCL1 /// GMCL1P1 / Fold change vs veh, GMCL1 /// GMCL1P1 / RFU, AEBP2 / Fold change vs veh, AEBP2 / RFU, SNHG1 /// SNORD22 /// SNORD25 /// SNORD26 /// SNORD27 /// SNORD28 /// SNORD29 /// SNORD31 / Fold change vs veh, SNHG1 /// SNORD22 /// SNORD25 /// SNORD26 /// SNORD27 /// SNORD28 /// SNORD29 /// SNORD31 / Fold change (Aza/veh), C12orf56 (ProbeSet 11735607_a_at) / Fold change (ACY-1035/veh), C12orf56 (ProbeSet 11735607_a_at) / Fold change (Aza/veh), FGFR1OP (ProbeSet 11751329_s_at) / Fold change (ACY-1035/veh), FGFR1OP (ProbeSet 11751329_s_at) / Fold change (Aza/veh), VPS36 (ProbeSet 11739960_a_at) / Fold change (ACY-1035/veh), VPS36 (ProbeSet 11739960_a_at) / RFU SYPL1 (11715823_x_at) / Fold change /veh SYPL1 (11715823_x_at) / RFU IGFBP7 (11715501_s_at) / Fold change /veh IGFBP7 (11715501_s_at) / RFU REEP3 (11722064_at) / Fold change /veh REEP3 (11722064_at) / RFU IGLL1 (11728026_x_at) / Fold change /veh IGLL1 (11728026_x_at): dose or concentration left out as unconfirmed
# Details: ProbeSet 11731461_x_at; LIST D
structure (smiles),measurement,value
Nc1ccc(-c2cccs2)cc1NC(=O)c1ccc2c(c1)cc(C1CC1)n2CCN1CCOCC1 [ACY-1035],"RFU, CPM",131.54 RFU
